# Assay results published in US8791067B2, “Method for treating malaria” (Morehouse School of Medicine, priority 2012, dated 2014).
# Experiments:
# Assay type in all cases: cell-based
# STAT3 = STAT3 activation (pSTAT3) in HEME-treated mouse brain endothelial cell line CRL2581; details: CRL2581 cells; for pSTAT3 level: FIG. 6B, 6C, 6G
# Source text: (§1) FIGS. 6D and 6E show protein expression of CXCL10 relative to actin in untreated control cells (D, E) and in cells treated with siSTAT3 (D), HEME (D, E), siSTAT3+HEME (D), AG490 (E) or AG490+HEME (E).
# (§2) High level of free HEME produced during malaria infection causes inflammation that damages host vascular endothelium and is a major contributor to pathogenesis of severe malaria. To determine how HEME stimulates HO-1, CXCL10 and STAT3 signaling pathways in vitro, mouse brain endothelial cell line CRL2581 was treated with HEME and the effects of HEME on expression of HO-1, CXCL10 and STAT3 activation was assessed. […] When pSTAT3 was reduced by short interfering STAT3 (siSTAT3) (FIG. 6B) or pharmacological inhibitor of Jak, AG490 (FIG. 6C), HO-1 protein expression was inhibited correspondingly.
# HO-1 = HO-1 expression in mouse brain endothelial cell line CRL2581; details: CRL2581 cells; for expression of HO-1 mRNA and protein: data not shown
# Source text: as §1, §2
# CXCL10 = CXCL10 expression and promoter activity in mouse brain endothelial cell line CRL2581; details: CRL2581 cells
# Source text: as §1, §2
# [1] = test system: Human brain microvascular endothelial cells (HBVEC); assay: HEME-induced cell death of HBVEC by MTT assay; details: HEME+AG490 (50 μmol/l) for 24 h, FIG. 7
# Procedure: Human brain microvascular endothelial cells (HBVEC) were treated with HEME or with HEME plus AG490 and monitored for cell death progression by MTT assay.
# Cell death progression in HBVEC cultured after treatment with HEME or HEME+AG490 (50 μmol/l) for 24 h as assayed by MTT assay (*P<0.05, n=3 triplicate experiments). The curves correspond to 3 experiments run in parallel. In all the samples, the same concentration of vehicle (DMSO, 0.1%) was used.
# [2] = test system: JAK/STAT3 signaling pathway; assay: Human JAK/STAT signaling pathway real time RT^2 Profile PCR arrays in HBVEC; details: HBVEC treated with 20 μM HEME vs vehicle; FIG. 8
# Procedure: Target genes of JAK/STAT3 signaling pathway upon HEME treatment was further assessed using real time RT^2 Profile PCR arrays (Qiagen, PAHS-039A). The results shown in FIG. 7 are expressed as the fold changes in expression obtained by comparing HBVEC treated with 20 μM HEME or with vehicle as control. […] The up regulated genes include STAT-induced gene matrix metallopeptidase 3 (MMP3), apoptosis-related gene CCAAT/enhancer binding protein (C/EBPb), Fc fragment of IgG, high affinity Ia, receptor (FCGR1A), Jun B proto-oncogene (JUNB), nuclear factor of kappa light polypeptide gene enhancer in B-cells 1 (NFκB), suppressor of cytokine signaling (SOCS3), SOCS4 and signal transducer and activator of transcription 4 (STAT4).
smiles,measurement,setting,value
"N#C/C(=C\c1ccc(O)c(O)c1)C(=O)NCc1ccccc1 [AG490, tyrphostin AG490]",pSTAT3 level,STAT3,reduced
same,HO-1 protein expression,"HO-1; HEME-induced, pSTAT3 reduced, FIG. 6B, 6C",inhibited
same,expression of CXCL10,"CXCL10; protein relative to actin, FIG. 6D, 6E",reduced expression
same,HEME-induced apoptosis / cell death in HBVEC,[1],can rescue the HEME-induced apoptosis
"C=CC1=C(C)c2cc3[n-]c(cc4nc(cc5[n-]c(cc1n2)c(C)c5CCC(=O)[O-])C(CCC(=O)[O-])=C4C)c(C)c3C=C.[Co+2].[H+].[H+] [CoPP, cobalt protoporphyrin]",pSTAT3 level,STAT3,increased
same,expression of HO-1 mRNA and protein,HO-1,significantly up regulated
C=CC1=C(C)c2cc3[n-]c(cc4[n-]c(cc5nc(cc1n2)C(C)=C5C=C)c(C)c4CCC(=O)O)c(CCC(=O)O)c3C.[Fe+2] [HEME],HEME concentration at which pSTAT3 peaked,STAT3; FIG. 6A,5 μM
same,HEME concentration from which pSTAT3 was increased,STAT3; FIG. 6A,1 μM
same,expression of HO-1 mRNA and protein,HO-1,significantly up regulated
same,expression of CXCL10 mRNA,CXCL10,significantly up regulated
same,CXCL10 promoter activity,CXCL10; data not shown,enhances CXCL10 promoter activity in a dose-dependent manner
same,"fold-change of down regulated genes (F2R, OAS1)",[2],greater than 2 fold
same,"fold-change of up regulated genes (MMP3, C/EBPb, FCGR1A, JUNB, NFκB, SOCS3, SOCS4, STAT4)",[2],greater than 2 fold
C=CC1=C(C)c2cc3[n-]c(cc4[n-]c(cc5nc(cc1n2)C(C)=C5C=C)c(C)c4CCC(=O)O)c(CCC(=O)O)c3C.[Zn+2] [ZnPP],pSTAT3 level,STAT3,decreased
same,expression of HO-1 mRNA and protein,HO-1,down regulated
